{"source": "patent US20230212571A1", "about": "“COMPOSITIONS AND METHODS FOR DELIVERING POLYNUCLEOTIDES” (NeOnc Technologies, Inc., priority 2020, published 2023)", "type_in_all_cases": "cell-based, human", "key": {"[1]": {"system": "AVM-BEC", "assay": "ELISA of AVM-BEC supernatants", "source_text": "(§1) Human surgical specimens were obtained following written informed consent from patients in accordance with Declaration of Helsinki guidelines and the Institutional Review Board (HS-04B053), at Keck School of Medicine, USC. AVM-BECs were isolated from brain tissues of patients who underwent microsurgical AVM resection. Control BECs were isolated from the structurally normal […] of patients who underwent temporal lobectomy for intractable epilepsy. Endothelial cell (EC) isolation and culture were described^5,9. (Stapleton C J, Armstrong D L, Zidovetzki R, Liu C Y, Giannotta S L, Hofman F M. Thrombospondin-1 modulates the angiogenic phenotype of human cerebral arteriovenous malformation endothelial cells. Neurosurgery. 2011; 68(5):1342-1353) (Ferreira R, Santos T, Amar A, et al. Argonaute-2 promotes miR-18a entry in human brain endothelial cells. J Am Heart Assoc. 2014; 3(3):e000968) ECs were only used between passages 3-5. Experiments were performed under shear flow conditions (12 dyn/cm^2) to reproduce arterial flow^6. (Ferreira R, Santos T, Amar A, et al. MicroRNA-18a improves human cerebral arteriovenous malformation endothelial cell function. Stroke. 2014; 45(1):293-297). For hypoxic experiments, cells were cultured in a Galaxy 48R (Eppendorf) incubator at 3% O2. MicroRNAs were co-administered with Ago-2 to increase the cellular uptake of miR-18a^9 (Ferreira R, Santos T, Amar A, et al. Argonaute-2 promotes miR-18a entry in human brain endothelial cells. J Am Heart Assoc. 2014; 3(3):e000968) (FIG. 9). Methods regarding cell treatments and transfections were included in Data.\nSmall interfering RNA transfection was performed as previously described^5. Briefly, ECs were transfected with small interfering RNA (siRNA) against ID1 or PAI-1 (Thermo Fisher Scientific), or small interfering control (Santa Cruz Biotechnology) constructs using Lipofectamine RNAiMax (Thermo Fisher Scientific) per the manufacturer's instructions. Knockdown of ID1 or PAI-1 was confirmed by quantitative real-time polymerase chain reaction as described^6 (FIG. 19). The sequences of the forward and reverse primers for ID1 and PAI-1 were included in Table 2.\nPlasmid constructs pcDNA3-ALK2^WT (Addgene #80870) and pcDNA3-ALK2^Q207D (Addgene #80871) were a gift from Aristidis Moustakas^7. (Meyer B, Schaller C, Frenkel C, Ebeling B, Schramm J. Distributions of local oxygen saturation and its response to changes of mean arterial blood pressure in the cerebral cortex adjacent to arteriovenous malformations. Stroke. 1999; 30(12):2623-2630) 10^4 AVM-BEC were seeded 24 h before transfection. The plasmid vector containing the 3′ untranslated region (3′UTR) of human BMP4, pRP [Exp]-Puro-CMV>Luciferase:{hBMP4_3′UTR}, was constructed and packaged by VectorBuilder. The vector ID is VB200205-1078zdv, which can be used to retrieve detailed information about the vector on vectorbuilder.com. Transient transfections were performed with Lipofectamine RNAiMax (Thermo Fisher Scientific) according to the manufacturer's instructions. After 4 h, medium was replaced by fresh medium containing microRNA.\nMiR-18a (hsa-miR-18a-5p, 40 nM, Dharmacon) or a scramble microRNA (40 nM, Dharmacon) in nuclease-free water was added with argonaute 2 (Ago-2, 0.4 nM, Abcam) as the microRNA carrier and stabilizer^9. (Ferreira R, Santos T, Amar A, et al. Argonaute-2 promotes miR-18a entry in human brain endothelial cells. J Am Heart Assoc. 2014; 3(3):e000968). No transfection reagent was used with miR-18a or scramble microRNA treatments. Recombinant human TSP-1 (R&D Systems) stock solution was prepared in PBS and further diluted in culture medium to be used at a final concentration of 1000 ng/mL. Cells were treated during 24 h for mRNA and 48 h for protein expression studies. NEO100 (NeOnc Technologies) stock was prepared in DMSO and used immediately or stored at −20° C. […]"}, "[2]": {"system": "AVM-BEC", "assay": "RT-qPCR mRNA expression in AVM-BEC", "source_text": "as §1\nMiR-18a (hsa-miR-18a-5p, 40 nM, Dharmacon) or a scramble microRNA (40 nM, Dharmacon) in nuclease-free water was added with argonaute 2 (Ago-2, 0.4 nM, Abcam) as the microRNA carrier and stabilizer^9. (Ferreira R, Santos T, Amar A, et al. Argonaute-2 promotes miR-18a entry in human brain endothelial cells. J Am Heart Assoc. 2014; 3(3):e000968). No transfection reagent was used with miR-18a or scramble microRNA treatments. Recombinant human TSP-1 (R&D Systems) stock solution was prepared in PBS and further diluted in culture medium to be used at a final concentration of 1000 ng/mL. Cells were treated during 24 h for mRNA and 48 h for protein expression studies. NEO100 (NeOnc Technologies) stock was prepared in DMSO and used immediately or stored at −20° C.\nThe extraction and analysis of total mRNA and microRNAs were described^9,13. (Ferreira R, Santos T, Amar A, et al. Argonaute-2 promotes miR-18a entry in human brain endothelial cells. J Am Heart Assoc. 2014; 3(3):e000968) (Marín-Ramos N I, Jhaveri N, Thein T Z, Fayngor R A, Chen T C, Hofman F M. NEO212, a conjugate of temozolomide and perillyl alcohol, blocks the endothelial-to-mesenchymal transition in tumor-associated brain endothelial cells in glioblastoma. Cancer Lett. 2018; 442:170-180). The Human Notch Signaling Pathway RT^2 Profiler PCR Array (Qiagen) was used to analyze the expression of 84 genes related to Notch signaling. For mRNA studies, […] (B2M) was measured for sample normalization. The primer sequences were included in Table 2. For microRNA analysis, RNU44 and U6 snRNA TaqMan microRNA Control Assays were used for normalization of human and mice samples, respectively."}, "[3]": {"system": "AVM-BEC", "assay": "Invasion assay, Matrigel-coated Boyden chamber, AVM-BEC", "conditions": "overnight, P=0.0012", "source_text": "The chemoinvasion assay was described^14. (Marín-Ramos N I, Thein T Z, Cho H-Y, et al. NEO212 inhibits migration and invasion of glioma stem cells. Mol Cancer Ther. 2018; 17(3):625-637). Pictures were captured using an Eclipse 80i microscope (Nikon), and cells counted with ImageJ Software (NIH)."}}}
{"substance": "hsa-miR-18a-5p (UAGGUGCAUCUAGUGCAGAUAG; chemistry not given here; listed as Homo sapiens) [small non-coding RNA molecule involved in post-transcriptional regulation of gene expression; Dharmacon]", "values": [{"measurement": "VEGF levels (ELISA)", "setting": "[1]; ALK2^WT-transfected AVM-BEC, P=0.0030", "value": "decrease VEGF levels"}, {"measurement": "levels of secreted TGF-β (ELISA)", "setting": "[1]; AVM-BEC supernatants, P>0.9999", "value": "not significantly changed"}, {"measurement": "levels of secreted PAI-1", "setting": "[1]; AVM-BEC supernatants, normoxia, vs scramble microRNA", "value": "decreased"}, {"measurement": "levels of secreted VEGF", "setting": "[1]; AVM-BEC supernatants, normoxia, decrease only reached significance with miR-18a", "value": "decreased"}, {"measurement": "VEGF levels (ELISA)", "setting": "[1]; AVM-BEC transfected with constitutively active ALK2^Q207D, P>0.9999", "value": "unable to decrease VEGF levels"}, {"measurement": "levels of secreted VEGF", "setting": "[1]; AVM-BEC transfected with siCTL, P=0.0007 vs scramble", "value": "decreased"}, {"measurement": "effects of miR-18a in the decrease of secreted VEGF levels", "setting": "[1]; AVM-BEC transfected with siPAI-1", "value": "lost"}, {"measurement": "PAI-1 secretion", "setting": "[1]; AVM-BEC, hypoxia 3% oxygen", "value": "reduction of PAI-1 secretion caused by miR-18a was still observed"}, {"measurement": "BMP4 mRNA expression", "setting": "[2]; AVM-BEC, 24 h, vs scramble, P=0.0022", "value": "normalized"}, {"measurement": "MMP2 mRNA expression", "setting": "[2]; AVM-BEC, P=0.0004", "value": "normalized"}, {"measurement": "MMP9 mRNA expression", "setting": "[2]; AVM-BEC, P=0.0091", "value": "normalized"}, {"measurement": "HIF-1α expression", "setting": "[2]; AVM-BEC, hypoxia 3% O2", "value": "remained unaltered"}, {"measurement": "HIF-1α expression", "setting": "[2]; AVM-BEC, normoxia", "value": "significantly (P=0.0025) decreased"}, {"measurement": "ALK2 mRNA expression", "setting": "[2]; AVM-BEC, vs scramble, P<0.0001", "value": "normalized"}, {"measurement": "MGP mRNA expression", "setting": "[2]; AVM-BEC, vs scramble, P<0.0001", "value": "normalized"}, {"measurement": "ALK1 mRNA expression", "setting": "[2]; AVM-BEC, vs scramble, P=0.0013", "value": "normalized"}, {"measurement": "ALK5 mRNA expression", "setting": "[2]; AVM-BEC, vs scramble, P=0.0072", "value": "normalized"}, {"measurement": "BMP9 mRNA expression", "setting": "[2]; non-HHT related AVM-BEC, P>0.05", "value": "No significant differences"}, {"measurement": "invasiveness", "setting": "[3]", "value": "decreased"}]}
